Experiment [1] concerns loperamide-induced retching. Put plainly: Antiemetic effects: loperamide-induced retching in ferrets. Type of experiment: in vivo. The settings on record: for Ratio p.o./s.c. of ED50 for blockade of retching: p.o. (−2 h) over s.c. (−1 h). On the procedure: The antiemetic effects have been determined using the loperamide-induced retching model (i.e. retching induced by an opioid) in ferrets. To exclude species differences in antiemetic activiey, both compounds have also been tested for antiemetic activity against apomorphine in dogs.
Antagonism of emesis induced by the peripherally selective opioid loperamide (0.31 mg/kg, s.c.) was studied over a 1 h-period starting immediately after the emetic challenge in ferrets pretreated with test compound or solvent. In control animals pre-treated with solvent, loperamide induced pronounced retching (mean±SD: 95±39 counts; n=[…]) and, to a lesser extent, vomiting (5±4).

Experiment [2] has as its target T1, cloned human h-NK1 receptors expressed in CHO cells (Homo sapiens, UniProt P25103).
T1 construct: expressed in transfected cells; host or cells: CHO cells
The experiment is described as follows: Binding experiment for h-NK1 receptors ([3H]-Substance P displacement). The settings on record: read-out: h-NK1 pIC50 (converted). On the procedure: (§1) The compounds according to the invention were investigated for interaction with various neurotransmitter receptors, ion channels and transporter binding sites using the radioligand binding technique. Membranes from tissue homogenates or from cells, expressing the receptor or transporter of interests, were incubated with a radioactively labelled substance ([^3H]- or [^125I] ligand) to label a particular receptor. […] Following incubation, labelled membranes were harvested and rinsed with excessive cold buffer to remove non-bound radioactivity by rapid filtration under suction. Membrane bound radioactivity was counted in a scintillation counter and results were expressed in counts per minute (cpm).
(§2) The compounds were dissolved in DMSO and tested at 10 concentrations ranging from 10^−10 to 10^−5 M.
(§3) The ability of the compounds according to the invention to displace [^3H]-Substance P from cloned human h-NK1 receptors expressed in CHO cells, to displace [^3H]-SR-48968 from cloned human h-NK2 receptors expressed in Sf9 cells, and to displace [^3H]-SR-142801 from cloned human h-NK3 receptors expressed in CHO cells was evaluated.

The target in experiment [3] is T2, cloned human h-NK2 receptors expressed in Sf9 cells (Homo sapiens, UniProt P21452).
T2 construct: expressed in transfected cells; host or cells: Sf9 cells
T2 sequence (P21452 1-398): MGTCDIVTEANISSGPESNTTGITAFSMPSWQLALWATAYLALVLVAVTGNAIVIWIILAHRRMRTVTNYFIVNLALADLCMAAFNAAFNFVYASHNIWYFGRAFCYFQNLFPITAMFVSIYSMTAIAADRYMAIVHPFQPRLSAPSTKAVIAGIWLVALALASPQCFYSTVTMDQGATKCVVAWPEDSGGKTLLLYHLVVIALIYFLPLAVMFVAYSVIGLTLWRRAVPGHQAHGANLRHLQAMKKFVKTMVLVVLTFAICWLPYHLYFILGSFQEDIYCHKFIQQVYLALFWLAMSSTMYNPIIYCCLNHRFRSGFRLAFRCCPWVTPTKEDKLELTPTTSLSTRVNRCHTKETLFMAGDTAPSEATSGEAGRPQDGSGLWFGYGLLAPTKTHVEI
The experiment is described as follows: Binding experiment for h-NK2 receptors ([3H]-SR-48968 displacement). Conditions: [3H]-SR-48968, Sf9 cells; read-out: h-NK2 pIC50 (converted). As to the method: as §1, §2, §3

Setting [4] is: ferrets, loperamide 0.31 mg/kg s.c., 1 h after subcutaneous administration, blockade = 0 retches.
The mark [5] stands for this setting: ferrets, loperamide 0.31 mg/kg s.c., 2 h after oral administration, blockade = 0 retches.
The mark [6] stands for this setting: read-out: ED50 (95% confidence limits) for blockade of loperamide-induced retching, p.o. route (−2 h), ferrets, loperamide 0.31 mg/kg s.c., 2 h after oral administration, blockade = 0 retches.
Where [7] appears, read: sc, read-out: ED50 for blockade of loperamide-induced retching, ferrets, loperamide 0.31 mg/kg s.c., 1 h after subcutaneous administration, blockade = 0 retches.

Read-outs that look alike come from different tables or passages of the source.

T1 sequence (P25103 whole entry): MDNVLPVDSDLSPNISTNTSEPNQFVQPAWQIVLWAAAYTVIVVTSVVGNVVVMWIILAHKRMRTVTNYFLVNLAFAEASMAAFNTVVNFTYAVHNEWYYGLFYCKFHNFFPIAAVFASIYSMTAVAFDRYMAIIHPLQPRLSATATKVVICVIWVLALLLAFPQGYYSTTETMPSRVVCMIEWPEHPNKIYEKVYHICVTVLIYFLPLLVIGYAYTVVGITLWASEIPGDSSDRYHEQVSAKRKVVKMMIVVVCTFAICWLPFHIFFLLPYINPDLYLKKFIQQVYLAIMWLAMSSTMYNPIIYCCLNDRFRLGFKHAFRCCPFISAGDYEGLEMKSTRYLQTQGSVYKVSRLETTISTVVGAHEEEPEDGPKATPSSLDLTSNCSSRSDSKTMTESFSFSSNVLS

As for `C[C@@H](O[C@H]1OCCN(Cc2n[nH]c(=O)[nH]2)[C@H]1c1ccc(F)cc1)c1cc(C(F)(F)F)cc(C(F)(F)F)c1` [Aprepitant/MK-869, Aprepitant, reference compound], the “ED50 for blockade of loperamide-induced retching, s.c. route (−1 h)” value in experiment [1] (setting [4]) is given as more than 1.25 mg/kg. For the same compound, in experiment [1] (setting [5]), the “ED50 (95% confidence limits) for blockade of loperamide-induced retching, p.o. route (−2 h)” value is 3.1 (1.9-5.0) mg/kg. In addition, the “Ratio p.o./s.c. of ED50 for blockade of retching” value (“Ratio p.o./s.c. of ED50” below) in experiment [1] (ferrets) is less than 2.5.
As to `Cc1nnsc1C(=O)N1CCC(N2CCN([C@H]3CCN(C(=O)c4cc(C(F)(F)F)cc(C(F)(F)F)c4)[C@H](Cc4ccccc4)C3)CC2)CC1` [Compound 77, (2-benzyl-4-{4-[1-(4-methyl-[1,2,3]thiadiazole-5-carbonyl)-piperidin-4-yl]-piperazin-1-yl}-piperidin-I -yl)-(3,5-bis-trifluoromethyl-phenyl)-methanone], the figures for the IC50 in experiment [2] and in experiment [3] were 1 nM and 794 nM, respectively. In experiment [1] (ferrets), the “ratio of oral ED50 (at time of peak effect) over subcutaneous ED50 (obtained at 1 h)” value is 1.1. For the same compound, the median effective dose (ED50) (as a rule, the dose that gives a 50% effect, or the effect in half of the subjects) was 0.26 mg/kg in experiment [1] (ferrets, blockade (=0 retches), intravenous route, 1 h after administration, read-out: ED50 for blockade of loperamide-induced retching); 0.72 mg/kg in experiment [1] (ferrets, blockade (=0 retches), oral route, 1 h after administration, read-out: ED50 for blockade of loperamide-induced retching); 0.42 mg/kg in experiment [1] (ferrets, blockade (=0 retches), oral route, 2 h after administration, read-out: ED50 for blockade of loperamide-induced retching); 0.77 mg/kg in experiment [1] (ferrets, blockade (=0 retches), oral route, 4 h after administration, read-out: ED50 for blockade of loperamide-induced retching); 0.34 mg/kg in experiment [1] (ferrets, blockade (=0 retches), oral route, 8 h after administration, read-out: ED50 for blockade of loperamide-induced retching); 1.66 mg/kg in experiment [1] (ferrets, blockade (=0 retches), oral route, 16 h after administration, read-out: ED50 for blockade of loperamide-induced retching). For the same compound, the ED50 in experiment [1] (ferrets, blockade (=0 retches), oral route, 32 h after administration, read-out: ED50 for blockade of loperamide-induced retching) was more than 2.5 mg/kg; in experiment [1] (ferrets, inhibition (<20 retches), intravenous route, 1 h after administration, read-out: ED50 for inhibition of loperamide-induced retching), 0.15 mg/kg; in experiment [1] (ferrets, inhibition (<20 retches), oral route, 1 h after administration, read-out: ED50 for inhibition of loperamide-induced retching), 0.31 mg/kg; in experiment [1] (ferrets, inhibition (<20 retches), oral route, 2 h after administration, read-out: ED50 for inhibition of loperamide-induced retching), 0.08 mg/kg; in experiment [1] (ferrets, inhibition (<20 retches), oral route, 4 h after administration, read-out: ED50 for inhibition of loperamide-induced retching), 0.26 mg/kg; in experiment [1] (ferrets, inhibition (<20 retches), oral route, 8 h after administration, read-out: ED50 for inhibition of loperamide-induced retching), 0.29 mg/kg. For the same compound, the ED50 in experiment [1] (ferrets, inhibition (<20 retches), oral route, 16 h after administration, read-out: ED50 for inhibition of loperamide-induced retching) is 0.73 mg/kg; in experiment [1] (ferrets, inhibition (<20 retches), oral route, 32 h after administration, read-out: ED50 for inhibition of loperamide-induced retching), approximately 2.5 mg/kg; in experiment [1] (ferrets, oral administration, time of peak effect, read-out: graphically estimated peak-effect ED50 for blockade of retching (=0 retches)), 0.34 mg/kg; in experiment [1] (iv, read-out: ED50 for blockade of retching 1 h after i.v. injection, ferrets, i.v., 1 h), 0.26 mg/kg; in experiment [1] (iv, read-out: ED50 for inhibition of retching 1 h after i.v. injection, ferrets, i.v., 1 h) it was 0.15 mg/kg; in experiment [1] (setting [6]), 0.42 mg/kg. Moreover, the ED50 in experiment [1] (read-out: graphically estimated peak-effect ED50 for inhibition of retching (<20 retches), ferrets, oral administration, time of peak effect) is 0.16 mg/kg; in experiment [1] (setting [7]), 0.32 mg/kg; in experiment [1] (sc, ferrets, blockade (=0 retches), subcutaneous route, 1 h after administration, read-out: ED50 for blockade of loperamide-induced retching) it was 0.32 mg/kg; in experiment [1] (sc, ferrets, inhibition (<20 retches), subcutaneous route, 1 h after administration, read-out: ED50 for inhibition of loperamide-induced retching), 0.18 mg/kg; in experiment [1] (sc, ferrets, s.c., 1 h, <20 retches, read-out: ED50 for inhibition of retching one hour after s.c. injection), 0.18 mg/kg; in experiment [1] (sc, ferrets, s.c., 1 h, =0 retches, read-out: ED50 for complete blockade of retching one hour after s.c. injection) it was 0.32 mg/kg. Besides, the duration of action in experiment [1] (ferrets, oral, at 4 times the peak-effect dose) is listed as 16 h. Also, in experiment [1] (ferrets), the “Ratio p.o./s.c. of ED50” value came out at 1.3.
With `Cc1nnsc1C(=O)N1CCC(N2CCN([C@H]3CCN(C(=O)c4cc(C(F)(F)F)cc(C(F)(F)F)c4)[C@H](Cc4ccccc4)C3)CC2)CC1` [Compound 78], the values for the IC50 in experiment [2] and in experiment [3] were 0.794 nM and 398 nM, respectively.
With `O=C(C1CCC1)N1CCC(N2CCN([C@H]3CCN(C(=O)c4cc(C(F)(F)F)cc(C(F)(F)F)c4)[C@H](Cc4ccccc4)C3)CC2)CC1` [Compound 102], the IC50 in experiment [2] is 1 nM.
For `C[C@@H](O[C@H]1OCCN(Cc2n[nH]nc2CN(C)C)[C@H]1c1ccc(F)cc1)c1cc(C(F)(F)F)cc(C(F)(F)F)c1` [Compound L-760735, reference compound], the “ED50 for blockade of loperamide-induced retching, s.c. route (−1 h)” value in experiment [1] (setting [4]) is 0.31 mg/kg.
Turning to `CN(Cc1ccccc1)C(=O)C(Cc1ccc2ccccc2c1)NC(=O)[C@@H]1CCCN1C(=O)Nc1ccccc1[N+](=O)[O-]` (stereo partly drawn) [SDZ-NKT-343, 2-Nitrophenylcarbamoyl-(S)-prolyl-3-(2-naphthyl)alanyl-N-benzyl-N-methylamide, reference compound], the “ED50 (95% confidence limits) for blockade of loperamide-induced retching, p.o. route (−2 h)” value in experiment [1] (setting [5]) was more than 2.5 mg/kg.
With `O=C(c1cncc(N2CCCC2)c1)N1CCC(N2CCN(C3CCN(C(=O)c4cc(C(F)(F)F)cc(C(F)(F)F)c4)C(Cc4ccccc4)C3)CC2)CC1` (stereo not shown) [Compound 85], the IC50 in experiment [2] is 3.16 nM.
For the compound `COc1ccccc1CN[C@H]1C2CCN(CC2)[C@H]1C(c1ccccc1)c1ccccc1` [CP-96345, reference compound], in experiment [1] (sc, 1 h, read-out: ED50 for blockade of loperamide-induced retching, s.c. route (−1 h)), the median effective dose (ED50) was more than 10 mg/kg.
As for `Cc1nnsc1C(=O)N1CCC(N2CCN([C@H]3CCN(C(=O)c4cc(C(F)(F)F)cc(C(F)(F)F)c4)[C@H](Cc4ccccc4)C3)CC2)CC1` [Compound 142], the IC50 in experiment [2] is 1.26 nM; in experiment [3], 631 nM.
The like results for `Cc1nnsc1C(=O)N1CCC(N2CCN([C@H]3CCN(C(=O)c4cc(C(F)(F)F)cc(C(F)(F)F)c4)[C@H](Cc4ccccc4)C3)CC2)CC1` [Compound 143] were, in that order, 1 nM and 794 nM.
In the case of `O=C(c1cccc(N2CCCC2)c1)N1CCC(N2CCN([C@H]3CCN(C(=O)c4cc(C(F)(F)F)cc(C(F)(F)F)c4)[C@H](Cc4ccccc4)C3)CC2)CC1` [Compound 42], the IC50 in experiment [2] was 2.51 nM.
Regarding `COc1ccc(-n2cnnn2)cc1CN[C@H]1CCCN[C@H]1c1ccccc1` [GR-203040, (2S,3S)-(2-methoxy-5-tetrazol-1-ylbenzyl)(2-phenylpiperidin-3-yl)amine, reference compound], in experiment [1] (ferrets), the “Ratio p.o./s.c. of ED50” value is listed as 3.1. Further, the ED50 in experiment [1] (setting [6]) was determined as 0.2 mg/kg; in experiment [1] (setting [7]), 0.064 mg/kg.
In the case of `O=C(c1cccc(C(=O)N2CCC(N3CCN([C@H]4CCN(C(=O)c5cc(C(F)(F)F)cc(C(F)(F)F)c5)[C@H](Cc5ccccc5)C4)CC3)CC2)c1)N1CCCC1` [Compound 45], the IC50 in experiment [2] is 0.316 nM.
Turning to `O=C(C(c1ccccc1)N1CCC(N2CCN(C3CCN(C(=O)c4cc(C(F)(F)F)cc(C(F)(F)F)c4)C(Cc4ccccc4)C3)CC2)CC1)N1CCOCC1` (stereo not shown) [Compound 6], in experiment [2], the IC50 is 1 nM.
Still for that read-out and setting: the result for `Cc1ccc(O)c(CN2CCC(N3CCN(C4CCN(C(=O)c5cc(C(F)(F)F)cc(C(F)(F)F)c5)C(Cc5ccccc5)C4)CC3)CC2)n1` (stereo not shown) [Compound 8] reads 0.631 nM.
As to `O=C(c1cc(C(F)(F)F)cc(C(F)(F)F)c1)N1CC[C@H](N2CCN(C3CCN(C(=O)C4(c5ccccc5)CC4)CC3)CC2)C[C@H]1Cc1ccccc1` [Compound 108], the IC50 in experiment [2] was 1.58 nM.
For `COc1ccccc1CN[C@H]1CCCN[C@H]1c1ccccc1` [CP-99994, reference compound], in experiment [1] (ferrets), the “Ratio p.o./s.c. of ED50” value is recorded as more than 16. Also, the ED50 in experiment [1] (setting [6]) is more than 10 mg/kg; in experiment [1] (setting [7]) it was 0.63 mg/kg.
Consider `O=C(/C=C/c1cccnc1)N1CCC(N2CCN([C@H]3CCN(C(=O)c4cc(C(F)(F)F)cc(C(F)(F)F)c4)[C@H](Cc4ccccc4)C3)CC2)CC1` [Compound 110], for which, in experiment [2], the IC50 is 0.1 nM.

These data come from patent publication US20060128721A1, “Novel formulations of opioid-based treatments of pain comprising substituted 1,4-di-piperidin-4-yl-piperazine derivatives” (priority 2003, published 2006).
